In patent US10189845B2, “4,6-substituted-pyrazolo[1,5-a]pyrazines as janus kinase inhibitors” (ARRAY BIOPHARMA INC., priority 2014, dated 2019):
Where a name gives a salt, the structure may show the parent alone. Read-outs that look alike come from different tables or passages of the source.

How the values were obtained:
Assay type in all cases: biochemical
[1] = molecular target: JAK1 (Homo sapiens (Human), UniProt P23458); experiment: JAK1 Inhibition Assay (Example B, Omnia kinase fluorescence peptide substrate assay)
Method in brief: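 Recombinant human JAK1 (12.5 nM) with 1 mM ATP and 8 μM Omnia Y12 Sox-peptide in 25 mM HEPES pH 7.4, 10 mM MgCl2, 0.01% Triton X-100, 1 mM DTT, 2% DMSO final. Phosphorylation read kinetically (ex 360/em 485 nm, 45 min); IC50 from 4-parameter fit of percent of control.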

[2] = molecular target: Human Tyk2 kinase domain (Homo sapiens (Human), UniProt P29597); experiment: Tyk2 Inhibition Assay (Example A, Omnia kinase fluorescence peptide substrate assay); details: TYK2 Enzyme IC50 1 mM ATP, averaged IC50 ranges
Method in brief: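 Omnia Sox-peptide kinetic fluorescence assay (ex 360/em 485 nm, read every 50 s for 45 min) with 1 nM human Tyk2 kinase domain (aa 886–1187, His tag cleaved, baculovirus-expressed), 1 mM ATP, 8 μM Omnia Y12 peptide, in 25 mM HEPES pH 7.4, 10 mM MgCl2, 0.01% Triton X-100, 1 mM DTT, 2% DMSO. IC50 from 4-parameter logistic fit of percent of control.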

[3] = molecular target: JAK3 (Homo sapiens (Human), UniProt P52333); experiment: JAK3 Inhibition Assay (Example D, Omnia kinase fluorescence peptide substrate assay)
Method in brief: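 Mixture held 2 nM JAK3, 1 mM ATP and 10 μM Omnia Y7 peptide in 25 mM HEPES pH 7.4, 10 mM MgCl2, 0.01% Triton X-100, 1 mM DTT, 2% DMSO final. Sox fluorescence (ex 360/em 485 nm) was read every 50 s for 45 min. IC50 came from a 4-parameter logistic fit of percent of control.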

[4] = molecular target: JAK2 (Homo sapiens (Human), UniProt O60674); experiment: JAK2 Inhibition Assay (Example C, Omnia kinase fluorescence peptide substrate assay); details: JAK2 Enzyme IC50 1 mM ATP, averaged IC50 ranges
Method in brief: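 4 nM JAK2 with 1 mM ATP and 10 μM Omnia Y7 peptide in 25 mM HEPES pH 7.4, 10 mM MgCl2, 0.01% Triton X-100, 1 mM DTT, 2% DMSO. Sox fluorescence (ex 360/em 485 nm) read every 50 s for 45 min; IC50 from 4-parameter fit of percent of control.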

[5] = JAK1 Enzyme IC50 1 mM ATP, 1 mM ATP, averaged IC50 ranges

JAK3, sequence (P52333 whole entry): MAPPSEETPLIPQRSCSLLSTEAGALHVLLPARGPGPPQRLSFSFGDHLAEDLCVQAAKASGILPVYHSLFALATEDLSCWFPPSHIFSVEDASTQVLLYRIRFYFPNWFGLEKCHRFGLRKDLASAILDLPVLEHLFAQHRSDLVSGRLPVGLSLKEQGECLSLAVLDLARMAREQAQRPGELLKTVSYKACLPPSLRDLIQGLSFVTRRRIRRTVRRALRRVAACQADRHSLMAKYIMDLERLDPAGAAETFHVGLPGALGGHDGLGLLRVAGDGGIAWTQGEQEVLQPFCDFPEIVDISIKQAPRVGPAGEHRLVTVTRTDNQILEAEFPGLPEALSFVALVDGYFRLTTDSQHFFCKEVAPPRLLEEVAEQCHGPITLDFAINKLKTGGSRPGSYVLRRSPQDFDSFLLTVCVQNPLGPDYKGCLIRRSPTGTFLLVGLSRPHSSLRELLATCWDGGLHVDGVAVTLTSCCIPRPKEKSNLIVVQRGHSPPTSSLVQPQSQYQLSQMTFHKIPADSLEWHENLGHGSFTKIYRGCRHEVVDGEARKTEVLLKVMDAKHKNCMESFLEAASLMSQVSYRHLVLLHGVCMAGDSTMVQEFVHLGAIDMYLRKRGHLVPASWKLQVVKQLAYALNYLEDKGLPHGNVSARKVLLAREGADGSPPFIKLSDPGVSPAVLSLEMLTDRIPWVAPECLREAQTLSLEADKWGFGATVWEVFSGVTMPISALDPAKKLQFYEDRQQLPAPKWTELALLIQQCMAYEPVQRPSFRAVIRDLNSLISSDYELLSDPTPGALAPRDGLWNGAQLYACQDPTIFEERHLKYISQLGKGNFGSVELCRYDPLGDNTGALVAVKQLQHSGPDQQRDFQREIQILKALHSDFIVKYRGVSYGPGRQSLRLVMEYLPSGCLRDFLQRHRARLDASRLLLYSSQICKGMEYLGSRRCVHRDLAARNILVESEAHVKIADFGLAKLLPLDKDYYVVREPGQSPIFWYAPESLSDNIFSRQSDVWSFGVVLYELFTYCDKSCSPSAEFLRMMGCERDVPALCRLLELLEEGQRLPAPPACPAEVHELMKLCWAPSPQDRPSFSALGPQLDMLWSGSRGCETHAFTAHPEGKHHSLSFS
JAK1, sequence (P23458 whole entry): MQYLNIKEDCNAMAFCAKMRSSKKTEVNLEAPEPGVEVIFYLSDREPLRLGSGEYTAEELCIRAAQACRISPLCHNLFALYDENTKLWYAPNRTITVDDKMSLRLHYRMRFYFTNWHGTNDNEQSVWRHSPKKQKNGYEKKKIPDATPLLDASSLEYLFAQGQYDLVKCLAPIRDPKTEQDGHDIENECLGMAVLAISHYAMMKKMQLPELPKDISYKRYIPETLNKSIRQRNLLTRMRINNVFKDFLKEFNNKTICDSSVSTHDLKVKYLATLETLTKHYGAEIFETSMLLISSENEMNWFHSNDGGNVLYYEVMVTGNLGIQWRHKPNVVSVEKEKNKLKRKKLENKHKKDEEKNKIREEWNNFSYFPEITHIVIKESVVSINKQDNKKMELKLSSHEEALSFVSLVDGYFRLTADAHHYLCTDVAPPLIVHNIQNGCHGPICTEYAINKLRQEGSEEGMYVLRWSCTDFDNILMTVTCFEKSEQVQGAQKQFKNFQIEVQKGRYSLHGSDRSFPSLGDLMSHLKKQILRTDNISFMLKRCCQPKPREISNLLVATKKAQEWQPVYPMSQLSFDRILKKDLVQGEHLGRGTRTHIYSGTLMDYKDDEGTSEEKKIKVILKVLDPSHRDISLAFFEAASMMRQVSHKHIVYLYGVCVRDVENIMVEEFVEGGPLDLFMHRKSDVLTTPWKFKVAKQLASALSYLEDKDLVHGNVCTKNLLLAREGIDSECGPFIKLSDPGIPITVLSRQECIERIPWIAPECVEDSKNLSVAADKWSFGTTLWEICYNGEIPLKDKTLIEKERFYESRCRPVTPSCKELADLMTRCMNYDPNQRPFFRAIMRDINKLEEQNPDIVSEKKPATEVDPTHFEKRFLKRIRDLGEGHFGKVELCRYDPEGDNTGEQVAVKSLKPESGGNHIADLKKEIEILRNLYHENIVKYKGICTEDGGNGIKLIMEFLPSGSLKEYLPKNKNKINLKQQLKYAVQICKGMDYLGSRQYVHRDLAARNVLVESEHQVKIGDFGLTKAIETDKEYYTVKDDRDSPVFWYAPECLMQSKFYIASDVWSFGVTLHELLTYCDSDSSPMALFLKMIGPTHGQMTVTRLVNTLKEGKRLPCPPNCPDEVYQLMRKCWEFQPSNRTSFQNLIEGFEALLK
Human Tyk2 kinase domain, sequence (P29597 886-1187): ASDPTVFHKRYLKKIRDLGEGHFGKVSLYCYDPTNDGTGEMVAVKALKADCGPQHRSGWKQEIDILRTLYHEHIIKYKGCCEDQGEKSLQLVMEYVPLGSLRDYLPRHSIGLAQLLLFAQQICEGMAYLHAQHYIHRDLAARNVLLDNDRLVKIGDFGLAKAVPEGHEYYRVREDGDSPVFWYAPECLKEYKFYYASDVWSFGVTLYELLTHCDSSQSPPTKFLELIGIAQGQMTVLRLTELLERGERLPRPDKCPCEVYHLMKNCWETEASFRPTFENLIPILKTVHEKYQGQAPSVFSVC
JAK2, sequence (O60674 whole entry): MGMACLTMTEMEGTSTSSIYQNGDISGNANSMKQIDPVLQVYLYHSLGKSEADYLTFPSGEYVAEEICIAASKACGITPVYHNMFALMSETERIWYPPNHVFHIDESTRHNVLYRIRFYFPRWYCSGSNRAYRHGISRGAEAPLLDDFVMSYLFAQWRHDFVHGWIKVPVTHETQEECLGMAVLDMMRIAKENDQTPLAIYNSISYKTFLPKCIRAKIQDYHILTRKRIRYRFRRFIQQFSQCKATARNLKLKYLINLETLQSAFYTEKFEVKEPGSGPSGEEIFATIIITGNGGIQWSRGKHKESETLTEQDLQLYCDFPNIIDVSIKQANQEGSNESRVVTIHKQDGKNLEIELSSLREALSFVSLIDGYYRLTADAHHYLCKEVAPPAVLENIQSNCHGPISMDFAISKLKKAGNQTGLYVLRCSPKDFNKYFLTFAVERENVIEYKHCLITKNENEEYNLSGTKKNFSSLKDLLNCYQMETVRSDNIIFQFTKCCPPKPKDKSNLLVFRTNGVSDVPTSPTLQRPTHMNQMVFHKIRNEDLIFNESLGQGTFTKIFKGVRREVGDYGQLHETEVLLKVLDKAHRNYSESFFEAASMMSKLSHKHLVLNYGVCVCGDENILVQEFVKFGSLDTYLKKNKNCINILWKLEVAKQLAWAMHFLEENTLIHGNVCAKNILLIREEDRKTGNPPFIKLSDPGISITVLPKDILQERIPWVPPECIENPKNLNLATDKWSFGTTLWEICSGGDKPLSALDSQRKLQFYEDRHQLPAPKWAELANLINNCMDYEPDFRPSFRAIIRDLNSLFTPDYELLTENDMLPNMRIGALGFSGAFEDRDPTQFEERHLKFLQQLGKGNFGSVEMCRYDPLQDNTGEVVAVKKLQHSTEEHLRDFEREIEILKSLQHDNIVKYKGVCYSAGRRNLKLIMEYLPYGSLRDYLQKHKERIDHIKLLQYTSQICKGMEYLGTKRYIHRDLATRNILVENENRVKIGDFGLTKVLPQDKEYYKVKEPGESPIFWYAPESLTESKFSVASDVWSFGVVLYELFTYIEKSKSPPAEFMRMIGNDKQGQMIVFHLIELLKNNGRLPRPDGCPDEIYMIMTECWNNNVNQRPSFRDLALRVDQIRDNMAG

Compound	IC50 [1, 5] [nM]	IC50 [2] [nM]	IC50 [3] [nM]	IC50 [4] [nM]	IC50 [1] [nM]
CCC(CC)n1cc(-c2nc(-c3cnn([C@H]4C[C@@H](O)C4)c3)cn3nccc23)cn1 [Example 119, cis-3-(4-(4-(1-(pentan-3-yl)-1H-pyrazol-4-yl)pyrazolo[1,5-a]pyrazin-6-yl)-1H-pyrazol-1-yl)cyclobutanol]	100 to 1000	< 10	1000 to 10000	10 to 100	–
CCC(CC)n1cc(-c2nc(-c3cnn([C@H]4C[C@H](CO)C4)c3)cn3nccc23)cn1 [Example 165, (trans-3-(4-(4-(1-(pentan-3-yl)-1H-pyrazol-4-yl)pyrazolo[1,5-a]pyrazin-6-yl)-1H-pyrazol-1-yl)cyclobutyl)methanol]	–	10 to 100	1000 to 10000	10 to 100	100 to 1000
C[C@@H]1CCCC[C@H]1n1cc(-c2nc(-c3cnn(C[C@@H](O)CO)c3)cn3nccc23)cn1 (single isomer, unassigned) [Example 151]	100 to 1000	10 to 100	1000 to 10000	10 to 100	–
CCC(CC)n1cc(-c2nc(-c3cnn(CCN4CC[C@@H](O)C4)c3)cn3nccc23)cn1 [Example 140, (R)-1-(2-(4-(4-(1-(pentan-3-yl)-1H-pyrazol-4-yl)pyrazolo[1,5-a]pyrazin-6-yl)-1H-pyrazol-1-yl)ethyl)pyrrolidin-3-ol]	–	10 to 100	1000 to 10000	10 to 100	1000 to 10000
C[C@@H]1CCCC[C@H]1n1cc(-c2nc(-c3cnn(C[C@H](O)CO)c3)cn3nccc23)cn1 (single isomer, unassigned) [Example 152]	1000 to 10000	10 to 100	1000 to 10000	10 to 100	–
CCC(CC)n1cc(-c2nc(-c3cnn(C[C@H](O)CC)c3)cn3nccc23)cn1 [Example 115, (R)-1-(4-(4-(1-(pentan-3-yl)-1H-pyrazol-4-yl)pyrazolo[1,5-a]pyrazin-6-yl)-1H-pyrazol-1-yl)butan-2-ol]	–	10 to 100	1000 to 10000	10 to 100	100 to 1000
CCC(CC)n1cc(-c2nc(-c3cnn([C@H](C)[C@H](C)O)c3)cn3nccc23)cn1 (single isomer, unassigned) [Example 158]	10 to 100	10 to 100	1000 to 10000	10 to 100	–
CCC(CC)n1cc(-c2nc(-c3cnn(C[C@H](C)CO)c3)cn3nccc23)cn1 [Example 15, (S)-2-methyl-3-(4-(4-(1-(pentan-3-yl)-1H-pyrazol-4-yl)pyrazolo[1,5-a]pyrazin-6-yl)-1H-pyrazol-1-yl)propan-1-ol]	10 to 100	10 to 100	1000 to 10000	10 to 100	–
CCC(CC)n1cc(-c2nc(-c3cnn(CCNC4CC4)c3)cn3nccc23)cn1 [Example 134, N-(2-(4-(4-(1-(pentan-3-yl)-1H-pyrazol-4-yl)pyrazolo[1,5-a]pyrazin-6-yl)-1H-pyrazol-1-yl)ethyl)cyclopropanamine trifluoroacetate]	–	10 to 100	1000 to 10000	10 to 100	10 to 100
CCC(CC)n1cc(-c2nc(-c3cnn(CC(C)(C)O)c3)cn3nccc23)cn1 [Example 117, 2-methyl-1-(4-(4-(1-(pentan-3-yl)-1H-pyrazol-4-yl)pyrazolo[1,5-a]pyrazin-6-yl)-1H-pyrazol-1-yl)propan-2-ol]	–	100 to 1000	1000 to 10000	100 to 1000	100 to 1000
CC[C@H](C1CC1)n1cc(-c2nc(-c3cnn(C(CO)CO)c3)cn3nccc23)cn1 [Example 215, (R)-2-(4-(4-(1-(1-cyclopropylpropyl)-1H-pyrazol-4-yl)pyrazolo[1,5-a]pyrazin-6-yl)-1H-pyrazol-1-yl)propane-1,3-diol]	100 to 1000	10 to 100	1000 to 10000	10 to 100	–
CCC(CC)n1cc(-c2nc(-c3cnn(C[C@H](CN)OC)c3)cn3nccc23)cn1 (single isomer, unassigned) [Example 149]	–	10 to 100	1000 to 10000	10 to 100	1000 to 10000
